Source: article PMC5615911 (Toxicology Reports, 2016)
Values joined by “and” are separate entries in the source; they are usually repeats but may differ in a detail not shown here. Equal entries are not always repeated. “Also recorded” adds a separate entry of the source.

Key:
CYP2C19 = CYP2C19 (Homo sapiens, UniProt P33261); test: CYP inhibition, LC–MS/MS assay in human liver microsomes; settings: probe S-mephenytoin
[1] = test system: S. typhimurium strains TA98, TA100, TA1535, TA1537; test: Bacterial reverse mutation test; format: cell-based
[2] = Pharmacokinetics of S3643, single iv or oral dose; format: in vivo, Sprague-Dawley rats; settings: for AUC(0-t): AUClast
[3] = test system: GPCRs, ion channels, nuclear receptors, transporters; test: Receptor lead profiling panel; settings: 10 μM
[4] = test system: Chinese hamster ovary cells (CHO-WBL); test: In vitro micronucleus test; format: cell-based
CYP3A4 = CYP3A4 (Homo sapiens, UniProt P08684); test: CYP inhibition, LC–MS/MS assay in human liver microsomes; settings: for inhibition at 10 µM: human, human liver microsomes
[5] = In vivo metabolism of S3643, single oral dose 100 mg/kg bw; set-up: species or system Sprague-Dawley rats
human umami receptor = settings: cited from earlier work
hERG = hERG (Homo sapiens, UniProt Q12809); test: hERG electrophysiology
[6] = 90-day subchronic toxicity study; format: in vivo, Sprague-Dawley rats
CYP2C9 = CYP2C9 (Homo sapiens, UniProt P11712); test: CYP inhibition, LC–MS/MS assay in human liver microsomes; settings: probe tolbutamide
CYP1A2 = target: T1, CYP1A2 (Homo sapiens, UniProt P05177); test: as above
T1 sequence (P05177 1-516): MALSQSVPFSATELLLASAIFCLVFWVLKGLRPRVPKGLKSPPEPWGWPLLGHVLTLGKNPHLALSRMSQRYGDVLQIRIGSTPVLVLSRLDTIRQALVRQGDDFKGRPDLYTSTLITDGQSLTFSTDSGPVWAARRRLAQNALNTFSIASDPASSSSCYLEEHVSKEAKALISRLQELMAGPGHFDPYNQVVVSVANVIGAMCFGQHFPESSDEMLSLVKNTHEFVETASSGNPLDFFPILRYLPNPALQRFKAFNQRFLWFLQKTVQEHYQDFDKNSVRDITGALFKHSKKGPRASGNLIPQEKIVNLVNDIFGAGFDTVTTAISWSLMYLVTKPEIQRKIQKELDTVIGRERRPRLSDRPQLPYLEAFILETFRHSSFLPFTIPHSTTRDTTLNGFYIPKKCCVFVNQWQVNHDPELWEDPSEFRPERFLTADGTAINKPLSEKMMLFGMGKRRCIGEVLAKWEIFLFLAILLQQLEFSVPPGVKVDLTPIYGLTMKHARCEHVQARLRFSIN

[7] = female, Sprague-Dawley, rat, plasma, iv, 1 mg/kg
[8] = female, Sprague-Dawley, rat, plasma, po
[9] = female, Sprague-Dawley, rat, plasma, po, 10 mg/kg
[10] = female, Sprague-Dawley, rat, plasma, po, 30 mg/kg
[11] = female, Sprague-Dawley, rat, plasma, po, 100 mg/kg
[12] = female, iv 1.0 mg/kg bw, 1 mg/kg
[13] = male, Sprague-Dawley, rat, plasma, iv, 1 mg/kg
[14] = male, Sprague-Dawley, rat, plasma, po
[15] = male, Sprague-Dawley, rat, plasma, po, 10 mg/kg
[16] = male, Sprague-Dawley, rat, plasma, po, 30 mg/kg
[17] = male, Sprague-Dawley, rat, plasma, po, 100 mg/kg
[18] = both, Sprague-Dawley, rat, plasma, oral, 100 mg/kg bw
[19] = rat plasma at 1 h, males and females combined
[20] = 10, 30, 100 mg/kg bw/day (food ad-mix)

CYP3A4, sequence (P08684 whole entry): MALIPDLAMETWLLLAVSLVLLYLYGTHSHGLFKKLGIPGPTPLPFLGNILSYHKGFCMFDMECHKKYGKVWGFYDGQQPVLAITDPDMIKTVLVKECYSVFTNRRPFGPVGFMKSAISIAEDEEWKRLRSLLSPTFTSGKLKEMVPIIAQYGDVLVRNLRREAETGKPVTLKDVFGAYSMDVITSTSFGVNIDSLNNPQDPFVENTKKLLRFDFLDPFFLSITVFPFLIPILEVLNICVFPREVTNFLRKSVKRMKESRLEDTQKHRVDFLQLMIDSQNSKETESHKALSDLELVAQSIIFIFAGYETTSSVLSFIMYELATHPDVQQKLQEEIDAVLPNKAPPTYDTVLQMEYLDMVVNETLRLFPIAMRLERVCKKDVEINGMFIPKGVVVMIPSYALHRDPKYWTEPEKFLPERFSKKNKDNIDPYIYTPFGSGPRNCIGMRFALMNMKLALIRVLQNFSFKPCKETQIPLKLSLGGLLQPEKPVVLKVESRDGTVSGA
hERG, sequence (Q12809 whole entry): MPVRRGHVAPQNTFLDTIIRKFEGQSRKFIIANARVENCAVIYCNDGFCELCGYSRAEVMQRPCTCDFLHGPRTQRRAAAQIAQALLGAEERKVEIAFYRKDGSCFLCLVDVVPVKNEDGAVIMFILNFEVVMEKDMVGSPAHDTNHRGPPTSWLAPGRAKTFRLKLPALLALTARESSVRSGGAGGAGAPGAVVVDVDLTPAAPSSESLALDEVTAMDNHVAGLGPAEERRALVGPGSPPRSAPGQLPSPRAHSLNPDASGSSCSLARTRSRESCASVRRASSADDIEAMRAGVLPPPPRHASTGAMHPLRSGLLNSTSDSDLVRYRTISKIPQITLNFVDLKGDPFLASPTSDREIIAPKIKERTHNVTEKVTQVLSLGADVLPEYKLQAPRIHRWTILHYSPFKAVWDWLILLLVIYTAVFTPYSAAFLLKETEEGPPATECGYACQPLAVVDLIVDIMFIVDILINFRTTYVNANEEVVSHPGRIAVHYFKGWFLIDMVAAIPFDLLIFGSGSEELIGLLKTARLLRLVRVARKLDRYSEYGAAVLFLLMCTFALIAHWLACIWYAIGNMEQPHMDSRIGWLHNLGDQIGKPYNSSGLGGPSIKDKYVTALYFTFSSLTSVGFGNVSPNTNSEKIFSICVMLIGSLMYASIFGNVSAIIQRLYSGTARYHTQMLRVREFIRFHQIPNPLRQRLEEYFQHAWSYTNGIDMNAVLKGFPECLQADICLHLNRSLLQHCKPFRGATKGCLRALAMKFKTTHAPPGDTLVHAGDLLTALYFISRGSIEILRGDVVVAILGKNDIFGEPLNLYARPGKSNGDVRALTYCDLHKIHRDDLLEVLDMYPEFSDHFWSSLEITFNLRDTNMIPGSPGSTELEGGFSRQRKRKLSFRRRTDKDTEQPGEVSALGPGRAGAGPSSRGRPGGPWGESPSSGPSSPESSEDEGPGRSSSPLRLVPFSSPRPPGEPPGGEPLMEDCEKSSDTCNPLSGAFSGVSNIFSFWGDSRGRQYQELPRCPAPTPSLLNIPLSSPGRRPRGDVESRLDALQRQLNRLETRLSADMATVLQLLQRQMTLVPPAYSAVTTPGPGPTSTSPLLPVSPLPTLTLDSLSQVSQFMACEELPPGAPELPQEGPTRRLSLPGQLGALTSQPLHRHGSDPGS
CYP2C9, sequence (P11712 whole entry): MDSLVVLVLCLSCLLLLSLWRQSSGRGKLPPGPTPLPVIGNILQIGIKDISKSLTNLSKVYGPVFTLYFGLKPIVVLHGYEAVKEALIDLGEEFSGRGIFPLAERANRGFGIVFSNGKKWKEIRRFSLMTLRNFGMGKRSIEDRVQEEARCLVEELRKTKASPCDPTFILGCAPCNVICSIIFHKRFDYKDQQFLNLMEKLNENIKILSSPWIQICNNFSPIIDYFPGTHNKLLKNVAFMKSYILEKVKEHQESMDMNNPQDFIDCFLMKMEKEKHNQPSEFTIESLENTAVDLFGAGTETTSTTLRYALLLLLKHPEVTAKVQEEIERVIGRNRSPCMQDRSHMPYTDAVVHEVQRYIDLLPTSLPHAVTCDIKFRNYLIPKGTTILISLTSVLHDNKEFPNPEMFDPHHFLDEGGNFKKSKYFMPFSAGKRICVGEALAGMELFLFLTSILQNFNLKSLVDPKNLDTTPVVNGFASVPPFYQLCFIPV
CYP2C19, sequence (P33261 whole entry): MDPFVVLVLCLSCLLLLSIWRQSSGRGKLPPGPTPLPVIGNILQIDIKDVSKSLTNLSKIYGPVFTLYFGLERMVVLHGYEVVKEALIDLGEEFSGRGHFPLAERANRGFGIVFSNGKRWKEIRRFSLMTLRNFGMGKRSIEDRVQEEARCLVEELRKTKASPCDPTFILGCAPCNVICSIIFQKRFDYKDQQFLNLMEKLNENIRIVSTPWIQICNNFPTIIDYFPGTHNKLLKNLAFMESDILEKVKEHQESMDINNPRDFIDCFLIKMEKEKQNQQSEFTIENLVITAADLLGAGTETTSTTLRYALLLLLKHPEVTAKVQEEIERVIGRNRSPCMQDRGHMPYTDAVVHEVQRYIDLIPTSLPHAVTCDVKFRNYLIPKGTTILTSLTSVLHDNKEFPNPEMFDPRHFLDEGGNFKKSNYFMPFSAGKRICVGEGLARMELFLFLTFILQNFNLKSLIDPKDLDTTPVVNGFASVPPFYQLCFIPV

Compound: COc1cccc(-c2n[nH]c(SCc3ccccn3)n2)c1OC [S3643, 2-(((3-(2,3-dimethoxyphenyl)-1H-1,2,4-triazol-5-yl)thio)methyl)pyridine]
- inhibition at 10 µM (CYP2C19): 13%
- Reverse mutation (in vitro), result ([1]; 63–1000 μg/plate, preincubation, +S9): Negative
- Reverse mutation (in vitro), result ([1]; 130–2000 μg/plate, plate incorporation, ±S9): Negative
- Reverse mutation (in vitro), result ([1]; 130–2000 μg/plate, preincubation, −S9): Negative
- Mutagenicity, conclusion ([1]; absence and presence of metabolic activation): not mutagenic
- Fold increase in AUClast for 10-fold increase in oral dose ([2]; female): 16.8 fold
- Tmax [2, 7]: 1.8 min
- Vd [2, 7]: 0.325 L/kg
- clearance [2, 7]: 8.03 mL/min/kg
- half-life [2, 7]: 9.6 min
- bioavailability [2, 8]: 67.4 to 116%
- half-life [2, 8]: 53.4 to 99.6 min
- Tmax [2, 9]: 15 min
- bioavailability [2, 9]: 67.4%
- half-life [2, 9]: 53.4 min
- AUC(0-t) ([2]; female, Sprague-Dawley, rat, plasma, po, 10 mg/kg, oral 10 mg/kg bw): 14200 ng·h/mL
- Cmax ([2]; female, Sprague-Dawley, rat, plasma, po, 10 mg/kg, Cmax, oral 10 mg/kg bw): 14900 ng/mL
- Tmax [2, 10]: 15 min
- bioavailability [2, 10]: 116%
- half-life [2, 10]: 68.4 min
- AUC(0-t) ([2]; female, Sprague-Dawley, rat, plasma, po, 30 mg/kg, oral 30 mg/kg bw): 73500 ng·h/mL
- Cmax ([2]; female, Sprague-Dawley, rat, plasma, po, 30 mg/kg, Cmax, oral 30 mg/kg bw): 45400 ng/mL
- Tmax [2, 11]: 22.8 min
- bioavailability [2, 11]: 113%
- half-life [2, 11]: 99.6 min
- AUC(0-t) ([2]; female, Sprague-Dawley, rat, plasma, po, 100 mg/kg, oral 100 mg/kg bw): 239000 ng·h/mL
- Cmax ([2]; female, Sprague-Dawley, rat, plasma, po, 100 mg/kg, Cmax, oral 100 mg/kg bw): 98900 ng/mL and 310 µM
- CL as % of hepatic blood flow ([2]; female, iv): 14.5%
- Vss as % of total body water volume ([2]; female, iv): 48.6%
- AUC0-last/dose ([2]; female, iv 1.0 mg/kg bw): 2110 ng·h/mL/mg/kg
- AUC0-last [2, 12]: 2110 ± 353 ng·h/mL
- Cmax [2, 12]: 9840 ± 1880 ng/mL
- AUC0-last/dose ([2]; female, oral gavage 10 mg/kg bw): 1423 ng·h/mL/mg/kg
- AUC0-last/dose ([2]; female, oral gavage 30 mg/kg bw): 2450 ng·h/mL/mg/kg
- AUC0-last/dose ([2]; female, oral gavage 100 mg/kg bw): 2393 ng·h/mL/mg/kg
- Female/male ratio of mean AUClast ([2]; iv 1 mg/kg): 0.76
- Female/male ratio of mean Cmax ([2]; iv 1 mg/kg): 0.91
- Fold increase in AUClast for 10-fold increase in oral dose ([2]; male): 6.88 fold
- Tmax [2, 13]: 1.8 min
- Vd [2, 13]: 0.337 L/kg
- clearance [2, 13]: 5.97 mL/min/kg
- half-life [2, 13]: 11.4 min
- bioavailability [2, 14]: 65.7 to 96%
- half-life [2, 14]: 48 to 99.6 min
- Tmax [2, 15]: 15 min
- bioavailability [2, 15]: 95.5%
- half-life [2, 15]: 48 min
- AUC(0-t) ([2]; male, Sprague-Dawley, rat, plasma, po, 10 mg/kg, oral 10 mg/kg bw): 26600 ng·h/mL
- Cmax ([2]; male, Sprague-Dawley, rat, plasma, po, 10 mg/kg, Cmax, oral 10 mg/kg bw): 32500 ng/mL
- Tmax [2, 16]: 26.4 min
- bioavailability [2, 16]: 96%
- half-life [2, 16]: 58.2 min
- AUC(0-t) ([2]; male, Sprague-Dawley, rat, plasma, po, 30 mg/kg, oral 30 mg/kg bw): 80300 ng·h/mL
- Cmax ([2]; male, Sprague-Dawley, rat, plasma, po, 30 mg/kg, Cmax, oral 30 mg/kg bw): 50900 ng/mL
- Tmax [2, 17]: 18.6 min
- bioavailability [2, 17]: 65.7%
- half-life [2, 17]: 99.6 min
- AUC(0-t) ([2]; male, Sprague-Dawley, rat, plasma, po, 100 mg/kg, oral 100 mg/kg bw): 183000 ng·h/mL
- Cmax ([2]; male, Sprague-Dawley, rat, plasma, po, 100 mg/kg, Cmax, oral 100 mg/kg bw): 78300 ng/mL and 238 µM
- CL as % of hepatic blood flow ([2]; male, iv): 10.8%
- Vss as % of total body water volume ([2]; male, iv): 50.4%
- AUC0-last/dose ([2]; male, iv 1.0 mg/kg bw): 2790 ng·h/mL/mg/kg
- AUC0-last ([2]; male, iv 1.0 mg/kg bw, 1 mg/kg): 2790 ± 187 ng·h/mL
- Cmax ([2]; male, iv 1.0 mg/kg bw, 1 mg/kg): 10870 ± 1870 ng/mL
- AUC0-last/dose ([2]; male, oral gavage 10 mg/kg bw): 2665 ng·h/mL/mg/kg
- Cmax ([2]; male, oral gavage 10 mg/kg bw, 10 mg/kg): 32510 ± 7710 ng/mL
- AUC0-last/dose ([2]; male, oral gavage 30 mg/kg bw): 2678 ng·h/mL/mg/kg
- AUC0-last/dose ([2]; male, oral gavage 100 mg/kg bw): 1833 ng·h/mL/mg/kg
- Significant responses (≥50% inhibition or stimulation) [3]: No significant responses; also recorded: No other significant off-target activities
- Micronucleus formation (in vitro), result ([4]; 16–63 μg/mL, 19 h exposure, −S9): Negative
- Micronucleus formation (in vitro), result ([4]; 50–200 μg/mL, 3 h exposure, +S9): Negative
- Micronucleus formation (in vitro), result ([4]; 100–300 μg/mL, 3 h exposure, −S9): Negative
- % cells in cytostasis ([4]; 3 h, +S9, 50 μg/mL): −1%
- % cells in cytostasis ([4]; 3 h, +S9, 100 μg/mL): −2%
- % cells in cytostasis ([4]; 3 h, −S9, 100 μg/mL): 1%
- % cells in cytostasis ([4]; 3 h, −S9, 200 μg/mL): 0%
- % cells in cytostasis ([4]; 3 h, −S9, 300 μg/mL): 25%
- % cells in cytostasis ([4]; 3 h, −S9, 450 μg/mL): 93%
- % cells in cytostasis ([4]; 19 h, −S9, 16 μg/mL): 10%
- % cells in cytostasis ([4]; 19 h, −S9, 63 μg/mL): 50%
- % cells in cytostasis ([4]; 19 h, −S9, 130 μg/mL): 93%
- Induction of micronuclei, conclusion ([4]; all conditions): did not induce micronuclei
- IC50 (CYP3A4): > 10 µM
- inhibition at 10 µM (CYP3A4): < 50%
- inhibition at 10 µM (CYP3A4; probe midazolam): 30%
- concentration at 0.25 h [5, 18]: 86000 ng/mL
- concentration at 0.5 h [5, 18]: 81400 ng/mL
- concentration at 1 h [5, 18]: 55900 ng/mL
- concentration at 2 h [5, 18]: 29200 ng/mL
- concentration at 4 h [5, 18]: 14100 ng/mL
- concentration at 8 h [5, 18]: 4830 ng/mL
- concentration at 24 h [5, 18]: 63 ng/mL
- % Peak Area [5, 19]: 55.52%
- Peak Area (×10^6) [5, 19]: 69.9
- Concentration lower than MSG for equivalent umami flavour effect (human umami receptor): 1000 fold
- inhibition at 10 µM (hERG): < 10%
- Findings, adverse effects [6, 20]: No adverse test-article related findings
- Findings, body weight [6, 20]: Lower body weight gain in females at 100 mg/kg/day
- NOAEL ([6]; 90 days in diet, male and female rats, highest dose tested): 100 mg/kg bw/day
- Mean body weight lower than controls ([6]; females, 100 mg/kg bw/day, beginning at Week 5): 7%
- Absolute liver weight increase vs control ([6]; males, 100 mg/kg bw/day): 12.5%
- Liver/body weight increase vs control ([6]; males, 100 mg/kg bw/day): 14.1%
- Liver/brain weight increase vs control ([6]; males, 100 mg/kg bw/day): 13.5%
- Margin of safety (NOAEL vs per capita intake 5 μg/kg bw/day) ([6]; rat, in vivo): > 20,000 fold
- inhibition at 10 µM (CYP2C9): 8%
- IC50 (CYP1A2): > 10 µM
- inhibition at 10 µM (CYP1A2; human, human liver microsomes, probe phenacetin): 43%
